Patent US9938279B2, “Method for treating disease or condition susceptible to amelioration by AMPK activators and compounds of formula which are useful to activate AMP-activated protein kinase (AMPK)” (ENERGENESIS BIOMEDICAL CO., LTD, priority 2013, dated 2018)

Key:
AMPK [1] = experiment: AMPK activation assay (western blot phospho-AMPK Thr172) in C2C12; format: cell-based, mouse; conditions: C2C12 cells, 30 min treatment
Experimental: (§1) Effects of compounds on AMPK activation were analyzed in mouse muscle cell C2C12, mouse fibroblast 3T3-L1 and human hepatocyte Hep G2. Those cell lines were cultured in high-glucose Dulbecco's modified Eagle's medium (DMEM) containing 10% fetal bovine serum (FBS), 4 mM L-glutamine, 2 mM sodium pyruvate and 1% penicillin/streptomycin (Invitrogen GibcoBRL, Carlsbad, Calif., USA) at 37° C. under 5% CO2. Cells were plated at 3×10^5 per well (6-well plate). 24 h after plating, cells were treated with indicated compounds for 30 min followed by cell lysis and western blot analysis. Equal amount of protein were separated by SDS-PAGE and then electroblotted on to PVDF membranes. Membranes were blocked with 3% BSA in PBS for 60 min and incubated with anti-phospho-AMPK (Thr172) antibody (1:2,000, Cell signaling), anti-AMPK antibody (1:2,000, Cell signaling), anti-Glut4 antibody (1:1,000, Millipore) or anti-actin antibody (1:5,000; Chemicon International) at 4° C. overnight followed by the corresponding secondary antibody for 1 h at room temperature (RT). Immunoreactive bands were detected by enhanced chemiluminescence (ECL; Pierce, Rockford, Ill., USA) and recorded using Kodakfilm (Rochester, N.Y., USA). The detected signals were scanned and then quantified by using TotalLab Quant software (TotalLab).

AMPK [2] = experiment: AMPK activation assay (western blot phospho-AMPK Thr172) in 3T3-L1; format: cell-based, mouse; conditions: 3T3-L1 cells, 30 min treatment
Experimental: as §1

AMPK [3] = experiment: AMPK activation assay (western blot phospho-AMPK Thr172) in Hep G2; format: cell-based, human; conditions: Hep G2 cells, 30 min treatment
Experimental: as §1

| SMILES | AMPK activation (% to control) C2C12 (AMPK [1]; 1 microM) | AMPK activation (% to control) C2C12 (AMPK [1]; 10 microM) | AMPK activation (% to control) C2C12 (AMPK [1]; 100 microM) | AMPK activation (% to control) C2C12 (AMPK [1]; 200 microM) | AMPK activation (% to control) 3T3-L1 (AMPK [2]; 1 microM) | AMPK activation (% to control) 3T3-L1 (AMPK [2]; 10 microM) | AMPK activation (% to control) 3T3-L1 (AMPK [2]; 100 microM) | AMPK activation (% to control) 3T3-L1 (AMPK [2]; 200 microM) | AMPK activation (% to control) Hep G2 (AMPK [3]; 1 microM) | AMPK activation (% to control) Hep G2 (AMPK [3]; 10 microM) | AMPK activation (% to control) Hep G2 (AMPK [3]; 100 microM) | AMPK activation (% to control) Hep G2 (AMPK [3]; 200 microM) |
| --- | --- | --- | --- | --- | --- | --- | --- | --- | --- | --- | --- | --- |
| Nc1nc(NCc2ccccc2)nc2nc[nH]c12 [Example 2-benzylamino-6-aminopurine, 2-benzylamino-6-aminopurine] | 110 % to control | 128 % to control | 259 % to control | 312 % to control | 119 % to control | 147 % to control | 217 % to control | 308 % to control | 105 % to control | 116 % to control | 235 % to control | 364 % to control |
| Nc1nc(Br)nc2nc[nH]c12 [Example 2-bromoadenine, 2-bromoadenine] | 116 % to control | 172 % to control | 263 % to control | 349 % to control | 119 % to control | 188 % to control | 277 % to control | 361 % to control | 113 % to control | 190 % to control | 253 % to control | 354 % to control |
| O=c1[nH]c(Br)nc2nc[nH]c12 [Example 2-bromohypoxanthine, 2-bromohypoxanthine] | 108 % to control | 142 % to control | 214 % to control | 321 % to control | 111 % to control | 176 % to control | 245 % to control | 357 % to control | 110 % to control | 160 % to control | 242 % to control | 359 % to control |
| Oc1nc(Cl)nc2nc[nH]c12 [Example 2-chloro-6-hydroxypurine, 2-chloro-6-hydroxypurine] | 109 % to control | 156 % to control | 277 % to control | 331 % to control | 108 % to control | 145 % to control | 243 % to control | 356 % to control | 110 % to control | 163 % to control | 249 % to control | 375 % to control |
| Nc1nc(Cl)nc2nc[nH]c12 [Example 2-chloroadenine, 2-chloroadenine] | 110 % to control | 155 % to control | 284 % to control | 326 % to control | 118 % to control | 143 % to control | 271 % to control | 311 % to control | 116 % to control | 139 % to control | 220 % to control | 314 % to control |
| Nc1nc(F)nc2nc[nH]c12 [Example 2-fluoroadenine, 2-fluoroadenine] | 102 % to control | 112 % to control | 213 % to control | 303 % to control | 114 % to control | 165 % to control | 291 % to control | 323 % to control | 117 % to control | 180 % to control | 259 % to control | 315 % to control |
| Oc1nc(NCc2ccccc2)c2[nH]cnc2n1 [Example 2-hydroxy-6-benzylaminopurine, 2-hydroxy-6-benzylaminopurine] | 108 % to control | 135 % to control | 244 % to control | 356 % to control | 115 % to control | 126 % to control | 230 % to control | 309 % to control | 109 % to control | 137 % to control | 261 % to control | 338 % to control |
| Oc1nc(S)c2[nH]cnc2n1 [Example 2-hydroxy-6-mercaptopurine, 2-hydroxy-6-mercaptopurine] | 104 % to control | 109 % to control | 198 % to control | 251 % to control | 118 % to control | 122 % to control | 210 % to control | 277 % to control | 105 % to control | 108 % to control | 204 % to control | 222 % to control |
| CNc1nc(O)nc2nc[nH]c12 [Example 2-hydroxy-6-methylaminopurine, 2-hydroxy-6-methylaminopurine] | 118 % to control | 151 % to control | 255 % to control | 361 % to control | 113 % to control | 162 % to control | 271 % to control | 382 % to control | 115 % to control | 148 % to control | 266 % to control | 354 % to control |
| CCCNc1nc(O)nc2nc[nH]c12 [Example 2-hydroxy-6-propylaminopurine, 2-hydroxy-6-propylaminopurine] | 114 % to control | 122 % to control | 201 % to control | 324 % to control | 109 % to control | 129 % to control | 233 % to control | 361 % to control | 110 % to control | 133 % to control | 270 % to control | 339 % to control |
| Nc1nc(O)nc2nc[nH]c12 [Example 2-hydroxyadenine, 2-hydroxyadenine] | 111 % to control | 166 % to control | 275 % to control | 315 % to control | 117 % to control | 171 % to control | 264 % to control | 351 % to control | 118 % to control | 143 % to control | 220 % to control | 338 % to control |
| Nc1nc(I)nc2nc[nH]c12 [Example 2-iodoadenine, 2-iodoadenine] | 114 % to control | 143 % to control | 214 % to control | 311 % to control | 116 % to control | 179 % to control | 237 % to control | 358 % to control | 115 % to control | 151 % to control | 227 % to control | 341 % to control |
